From paper PMC8198792, “Prediction of Anticancer Peptides with High Efficacy and Low Toxicity by Hybrid Model Based on 3D Structure of Peptides” (International Journal of Molecular Sciences, 2021)
Where two headings read alike, the source gives them in different places. Bridge positions count the residues as written; N and C are the ends. Peptide text beside a SMILES is read from it.

What was measured:
[1] = test system: many types of cells, including non-cancer cells; conditions: toxic peptides dataset TD2; class label 1 (toxic, positive set) or 0 (non-toxic AMP, negative set); ref SATPdb; cited from earlier work
erythrocytes = conditions: cited from earlier work
From the text: Supplement ijms-22-05630-s001.zip/Hemloytic Peptides(seguence).xlsx, sheet "HD1" | column: Activity || Supplement ijms-22-05630-s001.zip/Hemloytic Peptides(seguence).xlsx, sheet "HD2" | column: Activity || Supplement ijms-22-05630-s001.zip/Hemloytic Peptides(seguence).xlsx, sheet "HD3" | column: Activity

[2] = test system: human embryonic kidney cells (293T); test: MTT assay on non-cancerous cells, 293T; format: cell-based; conditions: 24 h; for toxicity to 293T cells (in words): low toxicity when the IC50 value exceeded 50 μM, MTT
From the text: (§1) Five peptides were randomly selected from the candidate ACPs and synthesized by Changzhou Kanglong Biotech Ltd (Changzhou, China). using 9-fuorenylmethoxy carbonyl (FMOC) solid phase synthesis technology. The synthetic peptide was identified by mass spectrometry (MS), and the purity >95% by high performance liquid chromatography (HPLC). Human breast cancer cell line (MCF7), lung cancer cell line (A549), cervical cancer cell line (HeLa), colorectal adenocarcinoma cell line (LoVo) and human embryonic kidney cells (293T) were preserved in our laboratory. At 37 °C under 5/95% CO2/air condition, all cell lines were cultured in Dulbecco’s modified Eagle medium (DMEM) supplemented with 10% (v/v) fetal bovine serum (FBS, Gibco, Carlsbad, CA, USA) and 1% (v/v) penicillin/streptomycin (Sangon Biotech, Shanghai, China).
(§2) Human tumor cell lines MCF7, A549, HeLa and LoVo were used as experimental materials to detect the anticancer activity of peptides by MTT assay. In addition, human embryonic kidney cells 293T were also included in the experiment to examine the safety of the peptide against non-cancerous cells. […] Untreated cells as negative control group incubated with corresponding medium for 24 h. Subsequently, 10 uL, 5 mg/mL MTT (Sangon Biotech, Shanghai, China) solution was added to each well and incubated for 4 h at 37 °C. After the medium was discarded, 150 μL DMSO was added to each well for 10 min to dissolve formazan crystals. Absorbance was measured at 570 and 630 nm using a multiwall plate reader and the inhibition rate was expressed as the mean ± standard deviation (SD) of the triplicate data.

[3] = test system: Human breast cancer cell line (MCF7); format: cell-based; conditions: 24 h
From the text: as §1, §2

[4] = test system: cervical cancer cell line (HeLa); format: cell-based, human; conditions: 24 h
From the text: as §1, §2

[5] = test system: lung cancer cell line (A549); format: cell-based, human; conditions: for IC50 / killing effects on lung cancer cell A549 (in words): 24 h; for selective killing effect on lung cancer A549 cells relative to 293T cells (in words): A549 versus 293T, MTT IC50; for killing effects on lung cancer cell A549 (in words): MTT, anticancer activity when IC50 less than 50 μM
From the text: as §1, §2

[6] = test system: colorectal adenocarcinoma cell line (LoVo); format: cell-based, human; conditions: 24 h
From the text: as §1, §2

cancer cell lines = test system: cancer cell lines; set-up: method as in 6 sources, ref CancerPPD [45] and SATPdb ||| ref CancerPPD/SATPdb ||| ref CancerPPD, SATPdb, Swissprot (PDB) ||| ref CancerPPD/SATPdb/Swissprot(PDB) ||| ref CancerPPD / SATPdb ||| ...; conditions: cited from earlier work
From the text: Supplement ijms-22-05630-s001.zip/ACPs(seguence).xlsx, sheet "D1" | column: Activity || Supplement ijms-22-05630-s001.zip/ACPs(seguence).xlsx, sheet "D2" | column: Activity || Supplement ijms-22-05630-s001.zip/ACPs(seguence).xlsx, sheet "D3" | column: Activity || (+ 2 further places)

[7] = test system: 2% sheep red blood cells (SRBC); test: Hemolysis assay; format: cell-based; conditions: Triton X-100 0.1% (w/v), 2% SRBC, 37 °C, 1 h, absorbance 540 nm; printed once per peptide line
Procedure: The 2% sheep red blood cells (SRBC) were purchased from Nanjing Senbeijia Biological Technology Co., Ltd (Nangjing, China). A total of 4 mL of 2% SRBC was taken, rinsed twice with 4 mL of PBS by centrifugation for 5 min at 3000 rpm and the precipitates were resuspended in 4 mL of PBS. We added 100 μL of 2% SRBC to each well of the 96-well plate and then added 100 μL peptide solutions of different concentrations (2, 4, 8, 16, 32, 64, 128 and 256 μM) in triplicate at 37 °C for 1 h. 100 μL of PBS buffer and 100 uL of Triton X-100 0.1% (w/v) were mixed with SRBC as negative and positive controls, respectively. All samples were centrifuged at 3000 rpm for 5 min, 100 μL supernatant was collected and transferred to a new 96-well plate, and its absorbance was measured at 540 nm. The calculation formula of hemolysis rate is as follows. (5) % Hemolysis=absorbancesample-absorbancenegative/absorbancepositive-absorbancenegative×100

[8] = Hemolytic peptides dataset HD2, label 1 = hemolytic, 0 = non-hemolytic, ref Hemolytik/SATPdb
[9] = hemolytic peptides dataset HD3, 1 = hemolytic (positive set), 0 = non-hemolytic (negative set), labels taken from databases, ref Hemolytik/SATPdb
[10] = ACPs dataset D3 (sheet "D3"), label 1 = ACP, 0 = non-ACP, ref CancerPPD/SATPdb
[11] = ACPs dataset D4 (sheet "D4"), label 1 = ACP, 0 = non-ACP, ref CancerPPD / SATPdb
[12] = ACPs dataset D5, sheet "D5", label 1 = ACP, 0 = non-ACP, ref CancerPPD [45] and SATPdb

Compound | Activity [1] | IC50 [2] [µM] | toxicity to 293T cells (in words) [2] | IC50 [3] [µM] | IC50 [4] [µM] | IC50 [5] [µM] | also measured
IDWKKLLDAAKQIL [satpdb24876] | 1 | – | – | – | – | – | Activity (erythrocytes; [8]): 0; Activity (erythrocytes; [9]): 0
CC[C@H](C)[C@@H]1NC(=O)[C@H](CCCCN)NC(=O)[C@@H](NC(=O)[C@H](CCCCN)NC(=O)[C@H](CC(C)C)NC(=O)CNC(=O)[C@H](CCC(=O)O)NC(=O)[C@H](CC(C)C)NC(=O)[C@H](CCCCN)NC(=O)CNC(=O)[C@H](C)NC(=O)[C@@H](NC(=O)[C@H](CC(=O)O)NC(=O)[C@H](CCCCN)NC(=O)[C@H](C)NC(=O)[C@H](C)NC(=O)CNC(=O)[C@H](CCCCN)NC(=O)[C@H](CC(C)C)NC(=O)[C@@H](NC(=O)[C@H](CC(=O)O)NC(=O)[C@H](CC(C)C)NC(=O)[C@H](Cc2ccccc2)NC(=O)[C@H](CC(C)C)NC(=O)CN)[C@@H](C)O)C(C)C)CSSC[C@@H](C(=O)N[C@@H](CCCCN)C(=O)N[C@@H](CC(C)C)C(=O)N2CCC[C@H]2C(=O)O)NC(=O)CNC(=O)[C@H]([C@@H](C)O)NC1=O [RANATUERIN2] (H-GLFLDTLKGAAKDVAGKLEGLKCKITGCKLP-OH; disulfide 23-28; N-terminus and C-terminus assumed) | – | > 128 | low toxicity | > 128 | > 128 | > 128 | –
CC[C@H](C)[C@H](NC(=O)CN)C(=O)N[C@@H](CC(C)C)C(=O)N[C@@H](CO)C(=O)N[C@@H](CO)C(=O)N[C@H](C(=O)N[C@@H](CCCCN)C(=O)NCC(=O)N[C@H](C(=O)N[C@@H](C)C(=O)N[C@@H](CCCCN)C(=O)NCC(=O)N[C@H](C(=O)N[C@@H](C)C(=O)N[C@@H](CCCCN)C(=O)N[C@@H](CC(N)=O)C(=O)N[C@H](C(=O)N[C@@H](C)C(=O)N[C@@H](C)C(=O)N[C@@H](CCC(N)=O)C(=O)N[C@@H](CC(C)C)C(=O)N[C@@H](CC(C)C)C(=O)N[C@@H](CC(=O)O)C(=O)N[C@H](C(=O)N[C@@H](CC(C)C)C(=O)N[C@@H](CCCCN)C(=O)N[C@H]1CSSC[C@@H](C(=O)O)NC(=O)CNC(=O)[C@H]([C@@H](C)O)NC(=O)[C@H]([C@@H](C)CC)NC(=O)[C@H](CCCCN)NC1=O)[C@@H](C)O)C(C)C)C(C)C)C(C)C)[C@@H](C)CC [RANATUERIN-2Lb] (H-GILSSIKGVAKGVAKNVAAQLLDTLKCKITGC-OH; disulfide 27-32; N-terminus and C-terminus assumed) | – | 63.2 | low toxicity | 45.2 | 37.2 | 15.3 | selective killing effect on lung cancer A549 cells relative to 293T cells (in words) [5]: selective killing effect; killing effects on lung cancer cell A549 (in words) [5]: effective killing effects; IC50 [6]: 59.8 µM
CC[C@H](C)[C@H](NC(=O)CN)C(=O)N[C@@H](Cc1ccccc1)C(=O)N[C@@H](CC(=O)O)C(=O)N[C@H](C(=O)N[C@H](C(=O)N[C@@H](CCCCN)C(=O)NCC(=O)N[C@H](C(=O)N[C@@H](CC(C)C)C(=O)N[C@@H](CCCCN)C(=O)NCC(=O)N[C@H](C(=O)NCC(=O)N[C@@H](CCCCN)C(=O)N[C@@H](CC(N)=O)C(=O)N[C@H](C(=O)N[C@@H](C)C(=O)NCC(=O)N[C@@H](CO)C(=O)N[C@@H](CC(C)C)C(=O)N[C@@H](CC(C)C)C(=O)N[C@@H](CCC(=O)O)C(=O)N[C@@H](CCC(N)=O)C(=O)N[C@@H](CC(C)C)C(=O)N[C@@H](CCCCN)C(=O)N[C@H]1CSSC[C@@H](C(=O)O)NC(=O)CNC(=O)CNC(=O)[C@H](CO)NC(=O)[C@H](CC(C)C)NC(=O)[C@H](CCCCN)NC1=O)C(C)C)C(C)C)C(C)C)C(C)C)C(C)C [Brevinin-2DYd] (H-GIFDVVKGVLKGVGKNVAGSLLEQLKCKLSGGC-OH; disulfide 27-33; N-terminus and C-terminus assumed) | – | 5.83 | highest toxicity | 25.7 | 19.7 | 2.98 | killing effects on lung cancer cell A549 (in words) [5]: effective killing effects; IC50 [6]: 8.05 µM
FVGAIAAALPHVISAIKNAL [satpdb12079] | 1 | – | – | – | – | – | Activity (erythrocytes; [8]): 1; Activity (erythrocytes; [9]): 1; Activity (cancer cell lines; [10]): 0; Activity (cancer cell lines; [11]): 0; Activity (cancer cell lines; [12]): 0
Triton X-100 [reference compound] | – | – | – | – | – | – | Hemolytic effect on 2% sheep erythrocytes, Positive Control (Triton X-100 (0.1%)) [7]: + (The “+” symbol indicates that the hemolysis rate exceeds 10% when peptides concentration reaches 100 μM)
CC(C)C[C@H](NC(=O)CN)C(=O)N[C@@H](Cc1ccccc1)C(=O)N[C@@H](CC(=O)O)C(=O)N[C@H](C(=O)N[C@H](C(=O)N[C@@H](CCCCN)C(=O)NCC(=O)N[C@H](C(=O)N[C@@H](CC(C)C)C(=O)N[C@@H](CCCCN)C(=O)NCC(=O)N[C@@H](C)C(=O)NCC(=O)N[C@@H](CCCCN)C(=O)N[C@@H](CC(N)=O)C(=O)N[C@H](C(=O)N[C@@H](C)C(=O)NCC(=O)N[C@@H](CO)C(=O)N[C@@H](CC(C)C)C(=O)N[C@@H](CC(C)C)C(=O)N[C@@H](CCC(=O)O)C(=O)N[C@@H](CCC(N)=O)C(=O)N[C@@H](CC(C)C)C(=O)N[C@@H](CCCCN)C(=O)N[C@H]1CSSC[C@@H](C(=O)O)NC(=O)CNC(=O)CNC(=O)[C@H](CO)NC(=O)[C@H](CC(C)C)NC(=O)[C@H](CCCCN)NC1=O)C(C)C)C(C)C)C(C)C)C(C)C [Brevinin-2DYb] (H-GLFDVVKGVLKGAGKNVAGSLLEQLKCKLSGGC-OH; disulfide 27-33; N-terminus and C-terminus assumed) | – | 50.7 | low toxicity | 37.8 | 23.3 | 24 | selective killing effect on lung cancer A549 cells relative to 293T cells (in words) [5]: selective killing effect; killing effects on lung cancer cell A549 (in words) [5]: effective killing effects; IC50 [6]: 35.1 µM
GLLGPLLKIAAKVGSNLL [satpdb10126] | 1 | – | – | – | – | – | Activity (erythrocytes): 1
FFGWLIRGAIHAGKAIHGLIHRRRH [satpdb10145] | 1 | – | – | – | – | – | Activity (erythrocytes): 1; Activity (cancer cell lines; ACPs dataset D1, 1 = ACP (positive), 0 = non-ACP (negative), label taken from databases, ref CancerPPD [45] and SATPdb): 0; Activity (cancer cell lines; ACPs dataset D4 (sheet "D4"), label 1 = ACP (CancerPPD ID), 0 = non-ACP (non-anticancer AMP, SATPdb ID), ref CancerPPD [45] and SATPdb): 0
GLADFLNKAVGKVVDFVKS [satpdb10833] | 0 | – | – | – | – | – | Activity (cancer cell lines; ACPs dataset D3 (supplement sheet "D3"), 1 = ACP, 0 = non-ACP, ref CancerPPD [45] and SATPdb): 0; Activity (cancer cell lines; [11]): 0; Activity (cancer cell lines; [12]): 0
GRLQAFLAKMKEIAAQTL [satpdb13649] | 0 | – | – | – | – | – | Activity (cancer cell lines; [10]): 0; Activity (cancer cell lines; [11]): 0; Activity (cancer cell lines; [12]): 0
